Legend:
[1] = system: phosphorylation of erbB2 in a MCF7 derived cell line (Clone 24 cells); assay: Clone 24 phospho-erbB2 cell assay, Test (c); type: cell-based; details: Homo sapiens; MCF7 derived Clone 24 cells, 4 hours; read-out: IC50 Test (c): Inhibition of erbB2 tyrosine kinase protein phosphorylation
Protocol: This immunofluorescence end point assay measures the ability of a test compound to inhibit the phosphorylation of erbB2 in a MCF7 (breast carcinoma) derived cell line which was generated by transfecting MCF7 cells with the full length erbB2 gene using standard methods to give a cell line that overexpresses full length wild type erbB2 protein (hereinafter ‘Clone 24’ cells).
Clone 24 cells were cultured in Growth Medium (phenol red free Dulbecco's modified Eagle's medium (DMEM) containing 10% foetal bovine serum, 2 mM glutamine and 1.2 mg/ml G418) in a 7.5% CO2 air incubator at 37° C. […] Cell density was measured using a haemocytometer and viability was calculated using Trypan Blue solution before being further diluted in Growth Medium and seeded at a density of 1×10^4 cells per well (in 100 ul) into clear bottomed 96 well plates (Packard, No. 6005182). […]
Immunostaining was performed at room temperature. […] Plates were analysed within six hours of completing the immunostaining.
The Fluorescence signal is each well was measured using an Acumen Explorer Instrument (Acumen Bioscience Ltd.), a plate reader that can be used to rapidly quantitate features of images generated by laser-scanning. […]

EGFR tyrosine kinase = biological target: T1, EGFR tyrosine kinase (Homo sapiens, UniProt P00533); assay: Protein tyrosine kinase phosphorylation assay, Test (a), EGFR; type: biochemical; details: recombinant intracellular fragment, ATP at Km; read-out: IC50 Test (a): Inhibition of EGFR tyrosine kinase protein phosphorylation
T1 construct: Recombinant intracellular fragments of EGFR, erbB2 and erbB4; made in house; host or cells: baculovirus/Sf21 insect cells (cleared lysate used)
T1 sequence (P00533 669-1210 limits assumed): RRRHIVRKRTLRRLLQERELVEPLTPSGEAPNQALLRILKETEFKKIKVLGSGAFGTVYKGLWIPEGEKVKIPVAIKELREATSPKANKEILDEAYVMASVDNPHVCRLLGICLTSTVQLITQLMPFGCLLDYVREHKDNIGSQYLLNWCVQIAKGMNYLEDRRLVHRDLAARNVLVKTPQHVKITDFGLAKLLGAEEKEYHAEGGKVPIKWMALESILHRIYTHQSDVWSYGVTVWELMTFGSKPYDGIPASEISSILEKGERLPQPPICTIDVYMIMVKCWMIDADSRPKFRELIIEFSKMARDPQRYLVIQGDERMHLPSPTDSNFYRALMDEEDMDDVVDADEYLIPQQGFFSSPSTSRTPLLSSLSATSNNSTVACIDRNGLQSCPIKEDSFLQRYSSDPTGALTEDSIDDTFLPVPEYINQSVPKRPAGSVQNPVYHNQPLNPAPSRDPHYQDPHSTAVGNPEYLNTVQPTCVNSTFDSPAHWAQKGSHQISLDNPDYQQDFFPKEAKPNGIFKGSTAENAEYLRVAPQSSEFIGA
Protocol: (§1) This test measures the ability of a test compound to inhibit the phosphorylation of a tyrosine containing polypeptide substrate by EGFR, erbB2 and erbB4 tyrosine kinase enzyme.
(§2) Recombinant intracellular fragments of EGFR, erbB2 and erbB4 (accession numbers X00588, X03363 and L07868 respectively) were cloned and expressed in the baculovirus/Sf21 system. Lysates were prepared from these cells by treatment with ice-cold lysis buffer (20 mM N-2-hydroxyethylpiperizine-N′-2-ethanesulfonic acid (HEPES) pH7.5, 150 mM NaCl, 10% glycerol, 1% Triton X-100, 1.5 mM MgCl2, 1 mM ethylene glycol-bis(β-aminoethyl ether) N′,N′,N′,N′-tetraacetic acid (EGTA), plus protease inhibitors and then cleared by centrifugation.
(§3) Constitutive kinase activity of these recombinant proteins was determined by their ability to phosphorylate a synthetic peptide (made up of a random co-polymer of Glutamic Acid, Alanine and Tyrosine in the ratio of 6:3:1). […]
(§4) The immobilised phospho-peptide product of the reaction was detected by immunological methods. […]
(§5) Kinase inhibition for a given compound was expressed as an IC50 value. […] The range of phosphorylation was calculated from the positive (vehicle plus ATP) and negative (vehicle minus ATP) control values.

erbB2 tyrosine kinase = biological target: T2, erbB2 tyrosine kinase (Homo sapiens, UniProt P04626); assay: Protein tyrosine kinase phosphorylation assay, Test (a), erbB2; type: biochemical; details: recombinant intracellular fragment, ATP at Km; read-out: IC50 Test (a): Inhibition of erbB2 tyrosine kinase protein phosphorylation
T2 construct: Recombinant intracellular fragments of EGFR, erbB2 and erbB4; made in house; host or cells: baculovirus/Sf21 insect cells (cleared lysate used)
T2 sequence (P04626 676-1255 limits assumed): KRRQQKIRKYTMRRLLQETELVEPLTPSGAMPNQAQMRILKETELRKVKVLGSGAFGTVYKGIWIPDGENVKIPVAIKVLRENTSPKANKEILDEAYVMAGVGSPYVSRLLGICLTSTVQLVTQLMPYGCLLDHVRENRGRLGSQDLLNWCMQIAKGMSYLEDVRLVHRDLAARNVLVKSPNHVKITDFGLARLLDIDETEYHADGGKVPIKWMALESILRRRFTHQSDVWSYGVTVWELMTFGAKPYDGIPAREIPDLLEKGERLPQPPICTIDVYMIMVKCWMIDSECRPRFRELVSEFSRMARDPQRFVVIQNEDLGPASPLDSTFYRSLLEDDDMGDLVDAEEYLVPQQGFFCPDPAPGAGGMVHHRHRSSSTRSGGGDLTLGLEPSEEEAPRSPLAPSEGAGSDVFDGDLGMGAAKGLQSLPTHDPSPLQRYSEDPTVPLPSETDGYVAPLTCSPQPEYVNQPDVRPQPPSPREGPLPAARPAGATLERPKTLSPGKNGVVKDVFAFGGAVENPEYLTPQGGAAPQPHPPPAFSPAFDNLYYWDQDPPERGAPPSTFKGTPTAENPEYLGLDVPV
Protocol: as §1, §2, §3, §4, §5

SMILES	IC50 [1] [nM]	IC50 (EGFR tyrosine kinase) [nM]	IC50 (erbB2 tyrosine kinase) [nM]
C[C@@H](Oc1cccc2ncnc(Nc3ccc4c(cnn4Cc4ccccn4)c3)c12)C(=O)N1CCOCC1 [Example 2, 5-[(1R)-1-Methyl-2-morpholin-4-yl-2-oxoethoxy]-N-[1-(pyridin-2-ylmethyl)-1H-indazol-5-yl]quinazolin-4-amine]	35	–	–
C[C@@H](Oc1cccc2ncnc(Nc3ccc4c(cnn4Cc4ccccn4)c3)c12)C(=O)N(C)CCO [Example 1, (2R)—N-(2-Hydroxyethyl)-N-methyl-2-[(4-{[1-(pyridin-2-ylmethyl)-1H-indazol-5-yl]amino}quinazolin-5-yl)oxy]propanamide]	–	210	12
